# Data reported in ChEMBL document CHEMBL5724914, “Linking interpersonal differences in gut microbiota composition and drug biotransformation activity” (2024).
# Details: human gut metagenome, 24 h, 2 µM
# Further: call rule not given here.
row,Bacterial Biotransformation,SMILES
1,Compound NOT metabolized,c1ccc2[nH]c(-c3cscn3)nc2c1 [THIABENDAZOLE]
2,Compound metabolized,CCN(CC)CCNC(=O)c1cc(S(C)(=O)=O)ccc1OC [TIAPRIDE]

# Details: human gut metagenome, 24 h, 2 µM
# Remark: another data set of the same source
row,Bacterial Biotransformation,SMILES
1,Compound metabolized,c1ccc2[nH]c(-c3cscn3)nc2c1 [THIABENDAZOLE]
2,Compound metabolized,CCN(CC)CCNC(=O)c1cc(S(C)(=O)=O)ccc1OC [TIAPRIDE]

# Test: (§1) The drug is tested on WLS-220 corresponding to human gut metagenome with ENA study accession number: PRJEB37062 and ENA sample accession number: ERS12561769 for biotransformation under anaerobic condition. The drug concentrations were measured over 9 timepoints collected between 0 and 24 hours of incubation by liquid-chromatography-coupled mass spectrometry (LC–MS)
# Details: 2 µM
row,Bacterial Biotransformation,SMILES
1,Compound NOT metabolized,c1ccc2[nH]c(-c3cscn3)nc2c1 [THIABENDAZOLE]
2,Compound metabolized,CCN(CC)CCNC(=O)c1cc(S(C)(=O)=O)ccc1OC [TIAPRIDE]

# Test: as §1, with “Z-003” for “WLS-220”, “pig” for “human”, “ERS12561803” for “ERS12561769”
# Details: 2 µM
row,Bacterial Biotransformation,SMILES
1,Compound NOT metabolized,c1ccc2[nH]c(-c3cscn3)nc2c1 [THIABENDAZOLE]
2,Compound metabolized,CCN(CC)CCNC(=O)c1cc(S(C)(=O)=O)ccc1OC [TIAPRIDE]

# Details: human gut metagenome, 24 h, 2 µM
# Remark: another data set of the same source
row,Bacterial Biotransformation,SMILES
1,Compound NOT metabolized,c1ccc2[nH]c(-c3cscn3)nc2c1 [THIABENDAZOLE]
2,Compound NOT metabolized,CCN(CC)CCNC(=O)c1cc(S(C)(=O)=O)ccc1OC [TIAPRIDE]

# Test: as §1, with “Z-020” for “WLS-220”, “rabbit” for “human”, “ERS12561819” for “ERS12561769”
# Details: 2 µM
row,Bacterial Biotransformation,SMILES
1,Compound NOT metabolized,c1ccc2[nH]c(-c3cscn3)nc2c1 [THIABENDAZOLE]
2,Compound NOT metabolized,CCN(CC)CCNC(=O)c1cc(S(C)(=O)=O)ccc1OC [TIAPRIDE]

# Test: as §1, with “WLS-077” for “WLS-220”, “ERS12561750” for “ERS12561769”
# Details: 2 µM
row,Bacterial Biotransformation,SMILES
1,Compound NOT metabolized,c1ccc2[nH]c(-c3cscn3)nc2c1 [THIABENDAZOLE]
2,Compound NOT metabolized,CCN(CC)CCNC(=O)c1cc(S(C)(=O)=O)ccc1OC [TIAPRIDE]

# Test: as §1, with “Z-030” for “WLS-220”, “mouse” for “human”, “ERS12561829” for “ERS12561769”
# Details: 2 µM
row,Bacterial Biotransformation,SMILES
1,Compound NOT metabolized,c1ccc2[nH]c(-c3cscn3)nc2c1 [THIABENDAZOLE]
2,Compound NOT metabolized,CCN(CC)CCNC(=O)c1cc(S(C)(=O)=O)ccc1OC [TIAPRIDE]

# Details: human gut metagenome, 24 h, 2 µM
# Remark: another data set of the same source
row,Bacterial Biotransformation,SMILES
1,Compound metabolized,c1ccc2[nH]c(-c3cscn3)nc2c1 [THIABENDAZOLE]
2,Compound metabolized,CCN(CC)CCNC(=O)c1cc(S(C)(=O)=O)ccc1OC [TIAPRIDE]

# Test: as §1, with “WLS-007” for “WLS-220”, “ERS12561742” for “ERS12561769”
# Details: 2 µM
row,Bacterial Biotransformation,SMILES
1,Compound NOT metabolized,c1ccc2[nH]c(-c3cscn3)nc2c1 [THIABENDAZOLE]
2,Compound NOT metabolized,CCN(CC)CCNC(=O)c1cc(S(C)(=O)=O)ccc1OC [TIAPRIDE]

# Details: human gut metagenome, 24 h, 2 µM
# Remark: another data set of the same source
row,Bacterial Biotransformation,SMILES
1,Compound NOT metabolized,c1ccc2[nH]c(-c3cscn3)nc2c1 [THIABENDAZOLE]
2,Compound metabolized,CCN(CC)CCNC(=O)c1cc(S(C)(=O)=O)ccc1OC [TIAPRIDE]

# Details: human gut metagenome, 24 h, 2 µM
# Remark: another data set of the same source
row,Bacterial Biotransformation,SMILES
1,Compound NOT metabolized,c1ccc2[nH]c(-c3cscn3)nc2c1 [THIABENDAZOLE]
2,Compound metabolized,CCN(CC)CCNC(=O)c1cc(S(C)(=O)=O)ccc1OC [TIAPRIDE]

# Details: human gut metagenome, 24 h, 2 µM
# Remark: another data set of the same source
row,Bacterial Biotransformation,SMILES
1,Compound NOT metabolized,c1ccc2[nH]c(-c3cscn3)nc2c1 [THIABENDAZOLE]
2,Compound metabolized,CCN(CC)CCNC(=O)c1cc(S(C)(=O)=O)ccc1OC [TIAPRIDE]

# Test: as §1, with “WLS-310” for “WLS-220”, “ERS12561785” for “ERS12561769”
# Details: 2 µM
row,Bacterial Biotransformation,SMILES
1,Compound NOT metabolized,c1ccc2[nH]c(-c3cscn3)nc2c1 [THIABENDAZOLE]
2,Compound metabolized,CCN(CC)CCNC(=O)c1cc(S(C)(=O)=O)ccc1OC [TIAPRIDE]

# Test: as §1, with “Z-026” for “WLS-220”, “to” for “to human gut”, “ERS12561825” for “ERS12561769”
# Details: 2 µM
row,Bacterial Biotransformation,SMILES
1,Compound NOT metabolized,c1ccc2[nH]c(-c3cscn3)nc2c1 [THIABENDAZOLE]
2,Compound NOT metabolized,CCN(CC)CCNC(=O)c1cc(S(C)(=O)=O)ccc1OC [TIAPRIDE]

# Details: human gut metagenome, 24 h, 2 µM
# Remark: another data set of the same source
row,Bacterial Biotransformation,SMILES
1,Compound NOT metabolized,c1ccc2[nH]c(-c3cscn3)nc2c1 [THIABENDAZOLE]
2,Compound NOT metabolized,CCN(CC)CCNC(=O)c1cc(S(C)(=O)=O)ccc1OC [TIAPRIDE]

# Details: human gut metagenome, 24 h, 2 µM
# Remark: another data set of the same source
row,Bacterial Biotransformation,SMILES
1,Compound NOT metabolized,c1ccc2[nH]c(-c3cscn3)nc2c1 [THIABENDAZOLE]
2,Compound NOT metabolized,CCN(CC)CCNC(=O)c1cc(S(C)(=O)=O)ccc1OC [TIAPRIDE]

# Details: human gut metagenome, 24 h, 2 µM
# Remark: another data set of the same source
row,Bacterial Biotransformation,SMILES
1,Compound NOT metabolized,c1ccc2[nH]c(-c3cscn3)nc2c1 [THIABENDAZOLE]
2,Compound metabolized,CCN(CC)CCNC(=O)c1cc(S(C)(=O)=O)ccc1OC [TIAPRIDE]

# Details: human gut metagenome, 24 h, 2 µM
# Remark: another data set of the same source
row,Bacterial Biotransformation,SMILES
1,Compound NOT metabolized,c1ccc2[nH]c(-c3cscn3)nc2c1 [THIABENDAZOLE]
2,Compound NOT metabolized,CCN(CC)CCNC(=O)c1cc(S(C)(=O)=O)ccc1OC [TIAPRIDE]

# Test: as §1, with “Z-008” for “WLS-220”, “to” for “to human gut”, “ERS12561808” for “ERS12561769”
# Details: 2 µM
row,Bacterial Biotransformation,SMILES
1,Compound NOT metabolized,c1ccc2[nH]c(-c3cscn3)nc2c1 [THIABENDAZOLE]
2,Compound NOT metabolized,CCN(CC)CCNC(=O)c1cc(S(C)(=O)=O)ccc1OC [TIAPRIDE]
